Measured values taken from patent US6423307B1, “Bioadhesive complexes of polycarbophil and azole antifungal or antiprotozoal drugs” (Farmigea S.p.A., priority 1996, dated 2002).

How the values were obtained:
[1] = test system: Candida albicans, strain ATCC 48867; assay: Experimental intravaginal infection by Candida albicans in a murine model; format: in vivo, CBA/J (H-2^k) mice; settings: for Not improved (% of mice): above 990 colonies; for Not improved (number of mice): vaginal wash 4 hours after dosing, above 990 colonies in 50 μl PBS; for Improved (% of mice) / Improved (number of mice): 100 to 990 colonies in 50 μl PBS; for Cured (number of mice): all cultures negative; for Sensibly improved (% of mice) / Sensibly improved (number of mice): less than 100 colonies in 50 μl PBS
From the text: In the frame of the microbiological experimentation of the products of the invention, the in vivo pharmacological activity of the econazole-polycarbophil complex has also been tested, in comparison with that of econazole (base), in the treatment of an experimental intravaginal infection by Candida albicans, reproduced in a murine model.
Vaginal candidiasis in rodents may be induced only in pseudoestrus conditions (P. L. Fidel, M. E. Lynch, J. D. Sobel, Infection and Immunity, 61 (5), 1993, 1990). For this reason, 72 hours before vaginal inoculation, the CBA/J (H-2^k) mice, described as sensible to such infection (P. L. Fidel, J. L. Cutright, J. D. Sobel, Infection and Immunity, 63 (10), 1995, 4191) were treated with 0.5 mg of estradiol valerate, dissolved in sesame oil, administered by subcutaneous route. The estrogen administration was repeated weekly until completion of the study. Blastoconoids (5×10^5) of Candida albicans, strain ATCC 48867, were inoculated in the vagina of mice previously treated with estrogens. After one week from the inoculation, the infection degree was evaluated by means of vaginal washing and subsequent count of the colony-forming units (CFU) on plates of Sabouraud agar, to which chloramphenicol and gentamicin had been added.
The infected animals were divided into three test groups, each one of which underwent a therapeutic treatment for five subsequent days (from day 1 to day 5). Each therapeutic treatment respectively consisted of: 1) econazole (base) (0.5 wt. % and 1 wt. %); 2) econazole-polycarbophil complex (0.5 wt. % and 1 wt. % calculated as econazole); 3) excipients (control group).
The infection degree was checked before starting the treatment and at the end thereof (day 6). […] The statistical evaluation of the results was made by means of the χ^2 test.

[2] = test system: C. albicans ATCC 48867; assay: Antifungal assay in solid medium (inhibition halo); format: cell-based, Candida albicans
Procedure: (§1) Two standard American Type Culture Collection (ATCC) strains were used for the assays, i.e. those deposited under the numbers ATCC 48867 and ATCC 23866. Econazole (base) and the econazole-polycarbophil complex were prepared by using different concentrations of the active ingredient depending on the assay requirements, as well as different solvents (i.e. propylene glycol, DMSO), with or without a thickening excipient substance (i.e. hydroxypropylcellulose). The activity of each solvent was also tested, as well as the activity of the excipient and that of polycarbophil alone.
The antifungal activity has been evaluated in an assay in solid medium using Petri dishes containing Sabouraud medium with 2% agar. The dishes were uniformly seeded, with the aid of a sterile pad, with an aqueous suspension containing C. albicans at a density of 2 McFarland. By means of an instrument of 6 mm diameter, incisions were made on the dishes in order to obtain regular cavities in the agar thickness. Each one of the substances under test was placed in one of these cavities, in amounts ranging from 50 to 100 μl. The plates were then incubated for 24 h in a thermostat at 37° C. The antifungal activity was evaluated by measuring the diameter of the inhibition of C. albicans growth around each cavity.
The antifungal assay in solid medium turned out to be a highly sensitive and reproducible assay also for the products under test. At least five separate experiments for evaluating the inhibition halos were carried our for each one of the two different strains and for each one of the compounds examined. Similar results were obtained with each compound in all of the experiments performed.

[3] = test system: C. albicans ATCC 48867; assay: Susceptibility test in microplate (liquid medium), MIC; format: cell-based, Candida albicans; settings: 48 h at 37° C.
Procedure: as §1
(§2) Stock solutions of econazole (base) and of the econazole-polycarbophil complex were obtained by dissolving the compounds in DMSO at a concentration of 1.5 mg/ml. Two serial 10-fold dilutions in DMSO were made starting from the stock solutions, up to a concentration of 15 μg/ml. From this concentration each compound was subsequently diluted in Yeast Nitrogen Base medium, to which 0.5% glucose and 0.05% bovine albumin had been added. The mixtures were then placed, at different concentrations, in microplate wells (90 μl volume each). 10 μl of a suspension of C. albicans obtained by diluting by {fraction (1/10+L )} a preparation having a turbidity of 2 McFarland were then inoculated in each well. […]

[4] = test system: C. albicans ATCC 23866; assay: as above; format: cell-based, Candida albicans; settings: 48 h at 37° C.
Procedure: as §1, §2

[5] = 0.5 wt. % econazole, 5 days, checked day 6

Clc1ccc(COC(Cn2ccnc2)c2ccc(Cl)cc2Cl)cc1 (stereo not shown) [econazole (base), 1-{2-[(4-chlorophenyl)methoxy]-2-(2,4-dichlorophenyl)ethyl}-1H-imidazole]
Not improved (% of mice) [1, 5]: 11.11%
Not improved (number of mice) [1, 5]: 1
Improved (% of mice) ([1]; 0.5 wt. % econazole): 66.66%
Improved (number of mice) ([1]; 0.5 wt. % econazole): 6
Cured (number of mice) ([1]; 0.5 wt. % econazole): 0
Sensibly improved (% of mice) ([1]; 0.5 wt. % econazole): 22.22%
Sensibly improved (number of mice) ([1]; 0.5 wt. % econazole): 2
Not improved (number of mice) ([1]; 1 wt. % econazole, 5 days, checked day 6): 3
Improved (% of mice) ([1]; 1 wt. % econazole): 56.25%
Improved (number of mice) ([1]; 1 wt. % econazole): 9
Not improved (% of mice) ([1]; 1 wt. % econazole): 18.75%
Cured (number of mice) ([1]; 1 wt. % econazole): 0
Sensibly improved (% of mice) ([1]; 1 wt. % econazole): 25.00%
Sensibly improved (number of mice) ([1]; 1 wt. % econazole): 4
cured animals added to sensibly cured animals (% of mice) ([1]; 1 wt. % econazole, p=0.0131 between groups): 25%
Diameter of inhibition halo ([2]; Concentration 3 × 10^−2 %, preparation with HPC): 31.2 ± 0.84 mm
Diameter of inhibition halo ([2]; Concentration 3 × 10^−2 %, preparation without HPC): 31.2 ± 0.84 mm
Diameter of inhibition halo ([2]; Concentration 3 × 10^−3 %, preparation with HPC): 29.4 ± 0.89 mm
Diameter of inhibition halo ([2]; Concentration 3 × 10^−3 %, preparation without HPC): 28.6 ± 0.55 mm
Diameter of inhibition halo ([2]; Concentration 3 × 10^−4 %, preparation with HPC): 20.8 ± 1.30 mm
Diameter of inhibition halo ([2]; Concentration 3 × 10^−4 %, preparation without HPC): 20.2 ± 1.09 mm
Diameter of inhibition halo ([2]; Concentration 3 × 10^−5 %, preparation with HPC): 13.0 ± 1.00 mm
Diameter of inhibition halo ([2]; Concentration 3 × 10^−5 %, preparation without HPC): 12.4 ± 0.58 mm
Minimal inhibitory concentration [3]: 5.6 ± 0.3 μg/ml of econazole
Minimal inhibitory concentration [4]: 5.6 ± 0.4 μg/ml of econazole
